Results reported in the supplement of paper PMC10949913.

How the values were obtained:
Test in all cases: area under concentration-response curve (viability) (AUC (a.u.)); higher = less active
Details in all cases: 48 h
CU-ACC2 = tested on: CU-ACC2
Summary of the method: (§1)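 Three adrenocortical carcinoma cell lines were exposed for 48 h to library compounds at 11 concentrations in 1,536-well plates, then read by CellTiter-Glo luminescence. Signals were scaled per plate against vehicle and empty-well controls. From fitted concentration-response curves of inhibitory or non-responding classes alone, AC50 and area under the curve were obtained.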

CU-ACC1 = tested on: CU-ACC1
Summary of the method: as §1

NCI-H295R = tested on: NCI-H295R
Summary of the method: as §1

Structure (SMILES)	area under concentration-response curve (CU-ACC2)	area under concentration-response curve (CU-ACC1)	area under concentration-response curve (NCI-H295R)
CC(C)C(=O)Nc1ccc([N+](=O)[O-])c(C(F)(F)F)c1	627	551	570
O=C(O)CNC(=O)c1ncc(-c2cccc(Cl)c2)cc1O	568	486	516
Cc1ccccc1N1C(=O)c2cc([S+](N)(=O)[O-])c(Cl)cc2NC1C (stereo not given)	599	495	512
O=C(NOCC(O)CO)c1ccc(F)c(F)c1Nc1ccc(I)cc1F (stereo not given)	459	329	488
Nc1cccc2c1C(=O)N(C1CCC(=O)NC1=O)C2=O (stereo not given)	645	520	567
Oc1ccc(C2CCN(c3ccnc4ccccc34)CC2)cc1O	549	497	523
COc1cc(-c2cc(-c3ccc(N4CCNCC4)cc3)cnc2C)cc(OC)c1OC	585	548	556
CC1(C)Cc2c(-c3ccccc3)c(-c3ccc(Cl)cc3)c(CC(=O)O)n2C1	559	475	516
CC(C)(C)[S+](=O)([O-])c1ccc2nccc(Nc3n[nH]c4ccc(F)cc34)c2c1	627	526	561
CCCOc1ccc2[nH]c(NC(=O)OC)nc2c1	568	499	480
CN1C(=O)C(Cc2c[nH]c3ccccc23)NC1=S (stereo not given)	639	543	568
N=C(N)NC(=N)NCCc1ccccc1	626	525	573
CC(=O)OCC(CCn1cnc2cnc(N)nc21)COC(C)=O	596	565	570
N\C1=N\C2=C(N=C[N]2COC(CO)CO)C(=O)N1	645	567	605
CN(C)[C@H]\1[C@@H]2[C@@H](O)[C@H]3\C(=C(O)/[C@]2(O)C(=O)\C(=C1O)C(N)=O)C(=O)C4=C(C=CC=C4O)[C@@]3(C)O	625	593	530
Oc1ccc(/C=C/c2cc(O)cc(O)c2)cc1	574	482	547
CC(C)(CO)n1cc(C(=O)c2cncc(NC(=O)Cc3ccc(Cl)cn3)c2)c2cnc(N)nc21	576	532	496
CC(C)C[C@@H](N)[C@H](O)C(=O)N[C@H](C(=O)N[C@H](C(=O)N[C@@H](CC(=O)O)C(=O)O)C(C)C)C(C)C	530	544	549

Structure (SMILES)	area under concentration-response curve (CU-ACC2)	area under concentration-response curve (CU-ACC1)	area under concentration-response curve (NCI-H295R)
CCC(=O)[N-]S(=O)(=O)c1ccc(-c2c(-c3ccccc3)noc2C)cc1.[Na+]	656	549	595
CC[C@H]1OC(=O)[C@H](C)[C@@H](O[C@H]2C[C@@](C)(OC)[C@@H](O)[C@H](C)O2)[C@H](C)[C@@H](O[C@@H]2O[C@H](C)C[C@H](N(C)C)[C@H]2O)[C@](C)(O)C[C@@H](C)C(=O)[C@H](C)[C@@H](O)[C@]1(C)O	634	544	594
CCN1C(=O)\C(=C/C2=C1N=C(NC3=CC=C(N4CCNCC4)C(=C3)F)N=C2)C5=CC=C(Cl)C=C5Cl	580	518	537
N#CN1CCC[C@@H](n2nc(-c3ccc(Oc4ccc(F)cc4F)cc3)c(C(N)=O)c2N)C1	607	487	553
N#Cc1cccc(-c2c[nH]c3ncnc(N4CCOCC4)c23)c1	595	508	553
O=c1oc2c(O)c(O)cc3c(=O)oc4c(O)c(O)cc1c4c23	579	482	517
O=[N+]([O-])c1ccc(-c2nc(-c3ccc(F)cc3)c(-c3ccncc3)[nH]2)cc1	567	498	489
COc1cc2ncnc(Nc3ccc(F)c(Cl)c3)c2cc1OCCCN1CCOCC1	624	562	594
O=C(c1ccc(C(=O)N2CCC(N3CCCC3)CC2)c(Nc2ccccc2)c1)N1CCC(N2CCCC2)CC1	601	493	556
CC(C)C[C@H](CC(=O)O)C(=O)N[C@@H](Cc1c[nH]c2ccccc12)C(=O)N[C@@H](C)c1ccccc1	622	433	577
C[C@](Cc1c[nH]c2ccccc12)(NC(=O)OC1C2CC3CC(C2)CC1C3)C(=O)NC[C@H](NC(=O)CCC(=O)O)c1ccccc1 (stereo not given in full)	582	510	537
CCN[C@H]1C[C@H](C)[S+](=O)([O-])c2sc([S+](N)(=O)[O-])cc21	612	514	558
Cc1cnc(-c2cc(N3CCN(C(=O)CC[S+](C)(=O)[O-])CC3)ncc2Cl)c(C)c1	534	536	551
CCC[C@H](N[C@@H](C)C(=O)N1[C@H](C(=O)O)C[C@@H]2CCCC[C@@H]21)C(=O)OCC	589	531	548
COCCNCCCn1c(C(=O)CF)c(-c2ccc(C)cc2)c2c(N)ncnc21	655	537	581
COC(=O)Nc1nc2cc(C(=O)c3cccs3)ccc2[nH]1	516	496	382
O=[N+]([O-])c1cncn1CCN1CCOCC1	611	545	563
